Key:
guinea pig [1] = assay: Delayed hypersensitivity skin test to arsanilic tyrosine after immunisation with antigen mixture plus test compound in FIA; format: in vivo; conditions: s.c. in FIA emulsion, skin test day 14, read at 24 hours, relative to FIA = 1
Description: (§1) The antigen mixture used consists of 20 μg. of arsanilic tyrosine and 100 μg. of protein [either bovine serum albumin (BSA) or ovalbumin]. The antigen mixture and the compounds to be tested, at the dose levels per guinea pig shown in the Table below, are dissolved in saline and emulsified with an equal volume of Freund's Incomplete Adjuvant (FIA). Groups of ten guinea pigs are used for each test compound and each guinea pig is injected with 0.1 ml. of the above emulsion, subcutaneously, in the nuchal region. Control groups are given the antigen mixture alone emulsified with FIA.
After 14 days, all animals are skin tested using 25 μg arsanilic tyrosine conjugated to either BSA or ovalbumin (BSA is used in this test when ovalbumin is present in the antigen mixture and vice versa) which is given in 0.1 ml saline intradermally in the flanks of the animals. The potencies of the test compounds in stimulating the delayed hypersensitivity reaction are then computed by multiplying the average area of the skin reaction at 24 hours by a number from 1 to 3 which is a measure of the amount of infiltration observed in each skin reaction. Thus, the procedure is as follows: skin tests with a high degree of infiltration are scored as ++ and assigned the number 3; those with a lesser degree are scored as + and given the number 2, whereas skin reactions with no infiltration are scored as zero and assigned the number 1. These numbers are then totaled for the animals in a group and the average number obtained is then multiplied by the average area of the observed skin reaction. There is thus included in the potencies the amount of infiltration coupled with the average area observed in the skin test.

guinea pig [2] = assay: Antibody titre (antibovine serum albumin or antiovalbumin) in sera by passive hemagglutination or Farr radioimmune assay; format: in vivo; conditions: s.c. in FIA emulsion, sera of day 42, relative to FIA = 1
Description: as §1
On day 42 all animals are bled by cardiac puncture and the sera assayed for antibovine serum albumin or antiovalbumin antibodies by the passive hemagglutination technique or by radioimmune assay using the Farr technique (P. Minden and R. S. Farr in "Handbook of Experimental Immunology", edited by D. M. Weir, Chapter 15, Volume 1, Blackwell Scientific Publications, Oxford) using ^125 iodine labeled bovine serum albumin. Average potencies of these assays are presented in Column 2 of the Table below relative to FIA having the value of one.

Row | SMILES | Average Potency, Delayed Hypersensitivity to Arsanilic Tyrosine (guinea pig [1]; dose 50 μg per guinea pig) | Average Potency, Antibody Titre (guinea pig [2]; dose 50 μg per guinea pig) | Average Potency, Delayed Hypersensitivity to Arsanilic Tyrosine (guinea pig [1]; dose 20 μg per guinea pig) | Average Potency, Antibody Titre (guinea pig [2]; dose 20 μg per guinea pig)
1 | CC(=O)N[C@H]1C(O)O[C@H](CO)[C@@H](O)[C@@H]1O[C@H](C)C(=O)N[C@@H](C)C(=O)N[C@H](CCC(=O)O)C(N)=O (stereo partly drawn) [2-(2-acetamido-2-deoxy-D-glucos-3-O-yl)-D-propionyl-L-alanyl-D-isoglutamine, reference compound] | 3.3 | 3.7 |  | 
2 | CC(=O)N[C@H]1C(O)O[C@H](CO)[C@@H](O)[C@@H]1O[C@H](C)C(=O)N[C@@H](CC(C)C)C(=O)N[C@H](CCC(=O)O)C(N)=O (stereo partly drawn) [2-(2-acetamido-2-deoxy-D-glucos-3-O-yl)-D-propionyl-L-leucyl-D-isoglutamine] | 7.5 | 5.3 |  | 
3 | CC(=O)N[C@H]1C(O)O[C@H](CO)[C@@H](O)[C@@H]1O[C@H](C)C(=O)N[C@@H](CCCCN)C(=O)N[C@H](CCC(=O)O)C(N)=O (stereo partly drawn) [2-(2-acetamido-2-deoxy-D-glucos-3-O-yl)-D-propionyl-L-lysyl-D-isoglutamine] |  |  | 0.9 | 1.2
4 | CC(=O)N[C@H]1C(O)O[C@H](CO)[C@@H](O)[C@@H]1O[C@H](C)C(=O)N[C@@H](Cc1ccccc1)C(=O)N[C@H](CCC(=O)O)C(N)=O (stereo partly drawn) [2-(2-acetamido-2-deoxy-D-glucos-3-O-yl)-D-propionyl-L-phenylalanyl-D-isoglutamine] | 7.2 | 7.1 |  | 
5 | CC(=O)N[C@H]1C(O)O[C@H](CO)[C@@H](O)[C@@H]1O[C@H](C)C(=O)N1CCC[C@H]1C(=O)N[C@H](CCC(=O)O)C(N)=O (stereo partly drawn) [2-(2-acetamido-2-deoxy-D-glucos-3-O-yl)-D-propionyl-L-prolyl-D-isoglutamine] | 6.6 | 7.0 |  | 
6 | CC(=O)N[C@H]1C(O)O[C@H](CO)[C@@H](O)[C@@H]1O[C@H](C)C(=O)N[C@@H](Cc1ccc(O)cc1)C(=O)N[C@H](CCC(=O)O)C(N)=O (stereo partly drawn) [2-(2-acetamido-2-deoxy-D-glucos-3-O-yl)-D-propionyl-L-tyrosyl-D-isoglutamine] |  |  | 6.5 | 2.3
7 | CC(=O)N[C@H]1C(O)O[C@H](CO)[C@@H](O)[C@@H]1O[C@H](C)C(=O)N[C@H](C(=O)N[C@H](CCC(=O)O)C(N)=O)C(C)C (stereo partly drawn) [2-(2-acetamido-2-deoxy-D-glucos-3-O-yl)-D-propionyl-L-valyl-D-isoglutamine] | 7.1 | 4.0 |  | 

Reference: US4082736A, “Novel immunological adjuvant compounds and methods of preparation thereof” (Syntex (U.S.A.) Inc., priority 1976, dated 1978)
